Laboratory results as given in patent US5346913A, “N-iodopropargyl hydantoin compounds, compositions, preparation, and use as antimicrobial agents” (Rohm and Haas Company, priority 1992, dated 1994).
Values after ≈ are worked out from the molar mass of the structure shown.

Assays:
[1] = tested on: Puccinia recondita (f. sp. tritici Races PKB and PLD); test: whole plant or invertebrate; format: in vivo; conditions: Puccinia recondita, 240 h; read-out: % Control WLR
[2] = tested on: Piricularia oryzae; test: microbe, parasite or virus in culture; format: cell-based; conditions: read-out: % Control PIR
[3] = tested on: Fusarium roseum; test: microbe, parasite or virus in culture; conditions: Fusarium sambucinum, read-out: % Control FUS
Source text: FUS Fusarium roseum (Ascomycete)
Transfers in steps 1 and 2 are done in a laminar flow hood. All 8 fungi and the bacterium used in this test are transferred and maintained on potato dextrose agar plates each week (2 plates/organism). Organisms are used when they are the following ages: a. […] Culture flasks are inoculated with 6 mycelial plugs each (except for Pythium which is inoculated with only 3 plugs) taken from PDA plates. All liquid shaker cultures are used after 2 days growth.
PYU, PHY, RHI and FUS cultures are ground up (2-3 5 second bursts in a blender) and all but Pythium and Phytophthora are filtered through a double layer of sterile cheesecloth to remove large mycelial clumps. Ten ml of the culture solutions of R. solani and F. roseum are added to 90 ml of YSB and 10 ml of the P. capsici is added to 90 ml ASB. […] The inoculum mixtures are placed in microtiter plates using a 12-tipped pipet. 175 μl (single dose) or 100 μl (dose-response test) of inoculum broth is placed in each well of the microtiter plates. The plates with inoculated media are placed in the refrigerator overnight. There are two replications per treatment.
This operation is carried out in a chemistry hood. Six microtiter plates have 245 microliters of sterile water added to their wells ahead of time. 10 Mg a.i. of the compounds are placed in 1 ml 1:1 acetone:methanol. 5 Microliters of this solution (6 microliters in the case of the 50 ppm dose) is pipetted into the microtiter plates containing the sterile water according to the grid. There are 45 compounds and 3 scattered control treatments per plate. There are 2 replicates per treatment. 25 Microliters of solution is transferred to the inoculated plates with a 96 well replicator. The replicator is flame sterilized with alcohol, rinsed with sterile water, and blotted on sterile paper towels between each transfer.

[4] = tested on: Xanthomonas campestris; test: microbe, parasite or virus in culture; format: cell-based; conditions: read-out: % Control XAN
[5] = tested on: Piricularia oryzae; test: whole plant or invertebrate; format: in vivo; conditions: Pyricularia oryzae, read-out: % Control RB
[6] = tested on: Phytophthora infestans; test: whole plant or invertebrate; format: in vivo; conditions: Phytophthora infestans, in Solanum lycopersicum, 96 h
[7] = tested on: Staphylococcus aureus; test: MIC, broth two-fold serial dilution test, Staphylococcus aureus (Saur); format: cell-based
Source text: (§1) The compounds identified with a prime (') were the non-iodo analogues of the invention compounds, i.e., the compounds of formula III or IV. All data are reported in ppm of active ingredient required to control the respective organism. The indication "No In." means that the compound had no inhibitory activity at 500 ppm which was the maximum tested, and so if the "No In." compound were active, the minimum inhibitory concentration would be above 500 ppm. The comparative tests were not run side-by-side, but were run on different days using the same methods. […] A minimum inhibitory concentration (MIC) value is obtained using a broth, two-fold serial dilution test performed as follows: […] A volume of the stock solution is dispensed into culture media to give an initial starting test concentration of the compound of 500 ppm or 250 ppm. When the test is ready to be done, each vessel in the dilution series, except the first vessel, contains an equal volume of compound free broth. The first vessel contains twice the volume of broth with the starting concentration of test compound. One half of the broth from the first vessel is transferred to the second vessel. After being mixed, one half the resulting volume is removed from the second vessel and transferred to the third vessel. […] Each vessel is then inoculated with a cell suspension of the appropriate test organism. Bacteria are grown in broth and fungi on agar […] is grown in cooling tower media for a time and at a temperature appropriate to the species being tested. At the end of the growth period, the broth is vortexed to disperse the cells. In the case of fungi, the spores are harvested by pipetting water onto the slant and dislodging the spores with a sterile loop. The cell/spore suspension is standardized by controlling incubation time, temperature, and the volume of the diluent. The suspension is then used to inoculate the vessels containing the broth compound. The vessels are then incubated at the appropriate temperature. After the incubation, the vessels are examined for growth/no growth. The MIC is defined as the lowest concentration of compound that results in complete inhibition of growth of the test organism. BACTERIA: Pseudomonas fluorescens (Ps.fl), gram negative; Pseudomonas aerugenosa (Ps.ae), gram negative; Escherichia coli (E.c), gram negative; and Staphylococcus aureus (S.a), gram positive.

[8] = tested on: Rhizoctonia solani; test: microbe, parasite or virus in culture; format: cell-based; conditions: read-out: % Control RHI
[9] = tested on: Erysiphe graminis (f. sp. tritici); test: whole plant or invertebrate; format: in vivo; conditions: Blumeria graminis; read-out: % Control WPM
[10] = tested on: Escherichia coli; test: MIC, broth two-fold serial dilution test, Escherichia coli (Ecol); format: cell-based
Source text: as §1

[11] = tested on: Pseudomonas aerugenosa; test: MIC, broth two-fold serial dilution test, Pseudomonas aerugenosa (Psae); format: cell-based
Source text: as §1

[12] = tested on: Aspergillus niger; test: MIC, broth two-fold serial dilution test, Aspergillus niger (Anig); format: cell-based; conditions: TSB
Source text: as §1, with “INDUSTRIAL FUNGI: Aspergillus niger (A.n); Aureobasidium pullulans (A.p)” for “BACTERIA: Pseudomonas fluorescens (Ps.fl), gram negative; Pseudomonas aerugenosa (Ps.ae), gram negative; Escherichia coli (E.c), gram negative; and Staphylococcus aureus (S.a), gram positive.”

[13] = tested on: Cochliobolus sativus; test: In-vitro plant disease test, HEL; format: cell-based; conditions: Bipolaris sorokiniana, read-out: % Control HEL
[14] = tested on: Pseudoperonospora cubensis; test: whole plant or invertebrate; format: in vivo; conditions: Pseudoperonospora cubensis, in Cucumis sativus, 168 h; read-out: % Control CDM
[15] = tested on: Phytophthora capsici; test: In-vitro plant disease test, PHY; format: cell-based; conditions: read-out: % Control PHY
[16] = tested on: Pythium ultimum; test: In-vitro plant disease test, PYU; format: cell-based; conditions: Globisporangium ultimum, read-out: % Control PYU

CC1(C)C(=O)N(CC#CI)C(=O)N1CC#CI [Compound 11]
pest or weed control at 100 ppm [1]: 50% | inhibition of growth at 25 ppm [2]: 100% | inhibition of growth at 50 ppm [2]: 100% | inhibition of growth at 25 ppm [3]: 0% | inhibition of growth at 50 ppm [3]: 100% | inhibition of growth at 25 ppm [4]: 0% | inhibition of growth at 50 ppm [4]: 0% | pest or weed control at 100 ppm [5]: 95% | pest or weed control at 100 ppm ([6]; read-out: % Control TLB, greenhouse test (Table 4), 100 ppm): 0% | MIC ([7]; M9G): 32 µg/mL (≈ 70.2 µM) | inhibition of growth at 25 ppm [8]: 100% | inhibition of growth at 50 ppm [8]: 100% | pest or weed control at 100 ppm [9]: 85% | MIC ([10]; M9G): 64 µg/mL (≈ 140 µM) | MIC ([11]; M9G): 125 µg/mL (≈ 274 µM) | MIC [12]: < 4 µg/mL | inhibition of growth at 25 ppm [13]: 90% | pest or weed control at 100 ppm [14]: 100%

CC1(C)NC(=O)N(CC#CI)C1=O [Compound 12]
pest or weed control at 200 ppm [1]: 25% | inhibition of growth at 25 ppm [2]: 90% | inhibition of growth at 25 ppm [3]: 75% | inhibition of growth at 25 ppm [4]: 0% | pest or weed control at 200 ppm [5]: 95% | pest or weed control at 200 ppm ([6]; read-out: % Control TLB, greenhouse test (Table 4), 200 ppm): 0% | MIC ([7]; M9G): 125 µg/mL (≈ 428 µM) | MIC ([7]; TSB): 16 µg/mL (≈ 54.8 µM) | inhibition of growth at 25 ppm [15]: 100% | inhibition of growth at 25 ppm [8]: 100% | pest or weed control at 200 ppm [9]: 0% | inhibition of growth at 25 ppm [16]: 100% | MIC ([10]; M9G): 125 µg/mL (≈ 428 µM) | MIC ([10]; TSB): 250 µg/mL (≈ 856 µM) | MIC ([11]; M9G): 250 µg/mL (≈ 856 µM) | MIC ([11]; TSB): > 500 µg/mL | MIC [12]: 8 µg/mL (≈ 27.4 µM) | pest or weed control at 200 ppm [14]: 0%
